From US10829466B2, “Stilbene derivative and preparation method thereof” (BEIJING INSTITUTE OF TECHNOLOGY, priority 2015, dated 2020) come the findings set out here.

“Also recorded” adds a separate entry of the source.

For data set [1], the system named is HEK293. Nature of the data set: In vitro cytotoxicity experiment (MTT, cell survival). Format: cell-based. As to conditions: for cell survival rates: HEK293, 24 h, MTT, at all three doses, low, medium and high (100 μM; 500 μM; 1000 μM); for neuronal cytotoxicity / neurotoxicity (in words): HEK293, in vitro test, FIG. 3. How it is done: Example 35: In Vitro Cytotoxicity Experiment the Experimental Cell Line is HEK293
Cells are cultured in a 96-well plate at a cell concentration of 5000/well. After 24 hours of cell culture, the drug treatment is performed and the experiment is carried out on two groups: the control group is added with DMSO with the same concentration as that for the experimental group; in the experimental group, each compound is tested at three doses of low, medium and high doses (100 μM; 500 μM; 1000 μM), and five parallels are tested at each dose; in the blank group, a complete medium is added with a compound to be tested with the same concentration as that for the experimental group. Constant temperature incubation is carried out for 24 h in a CO2 incubator, MTT with a final concentration of 0.5 mg/mL is then added; 4 hours later, 200 μL of DMSO solution is added, and the absorbance is measured at 490 nm. The cell survival is calculated according to the absorbance; Survival %=(Average concentration−Blank concentration)/(Average control concentration−Blank concentration)*100%.
Reference is made to FIG. 3 which illustrates an in vitro cytotoxicity test chart of a novel stilbene derivative according to an example of embodiments of the present invention.

The test system of data set [2] is neurogenesis in rat hippocampus. Nature of the data set: Detection of neurogenesis in rat hippocampus by BrdU labeling (DAB immunohistochemistry). It is filed as in vivo. As to conditions: for neurogenesis activity (in words): under the test conditions of the embodiments, same dose; for BrdU labeling result: SD male rats, intraperitoneal injection 28 days, 4 mg/Kg, compared with the control group; for activity of proliferation promotion (BrdU positive) at low dose: low dose 0.5 mg/Kg, compared with blank sample (V), FIG. 10. An excerpt:
Example 36: Detection of Neurogenesis in Rat Hippocampus by BrdU (5-Bromo-2-deoxy Uridine, 5-bromodeoxyuridine) Labeling
Experimental animals: 10-week-old SD male rats having a body weight of about 300 g are purchased. The rats are used in experiments one week after being adapted to the environment in an animal room. Experimental groups: control group, drug group. 2-3 rats per group. Experimental reagent: injection oil is used to dissolve a compound to be tested. Rates in the control group are injected with the same dose of dissolving oil.
Test method: intraperitoneal injection is carried out 28 days at the injection dose of 0.5 ml-1 ml each time. Dose: 4 mg/Kg.
1) marker injection: BrdU (dissolved in sterile saline solution at a concentration of 10 mg/mL) solution is injected intraperitoneally into rats. (For rats with different body weights, the injection dose of BrdU is 50 mg·Kg^−1, injection is carried out twice every 2 hour; the intraperitoneal injection 24 hours before anesthesia ends.
2) Anesthesia: Anesthesia is performed by intraperitoneal injection of sodium pentobarbital solution into rats. (For rats with different body weights, the injection dose of sodium pentobarbital is usually 70 mg·Kg^−1.)
3) Cardiac perfusion: cardiac perfusion with normal saline is performed according to a general method.
4) Taking of brain tissues: The heads of the rats are separated from the bodies with surgical forceps and scissors, and then the muscles and membrane tissues at the top of the skulls are removed and brains are then gently peeled from the skulls. The separated brains are soaked in 4% paraformaldehyde for 24-48 hours.
5) Dehydration of brain tissues: the fixed tissues are soaked with a 20% sucrose PBS solution for more than 72 hours, and then the brain tissues are soaked with a 30% sucrose PBS solution for more than 72 hours.
6) Frozen section: the brain tissues are cut into […] thick sections by a general coronal section procedure.
7) DAB immunohistochemistry step: DNA denaturation is carried out and the sections are transferred to a 24-well plate (pH 7.4) perfused with 0.1 M PBS. The brain sections are incubated with 1% H2O2 for 30 minutes to remove […]; the sections are then treated with a 2M HCl solution for 30 minutes at room temperature to denature them. After completion of the denaturation, the brain sections are immersed in a 0.1 M sodium borate (pH 8.5) solution for 5 minutes and rinsed twice; the brain sections are incubated in 0.5% PBST for 1 hour at room temperature, and then are blocked for 1 hour with a serum blocking solution on a shaker at room temperature, and the serum blocking solution is from the same source as a secondary antibody; the samples are treated on the shaker with a BrdU primary antibody overnight at 4° C., and the BrdU primary antibody is diluted with the blocking solution; the samples are incubated with the biotinylated secondary antibody IgG for 2 hours at room temperature; a C (ABC kit) solution is incubated at room temperature for 2 hours; finally, after 3 to 5 minutes of color development by the DAB kit, the samples are mounted by using a PVP mounting medium and then dried, and finally the experimental results are detected under a microscope.
The dose-effect relationships of different compounds is further tested according to the method of Example 36, and the compounds include WS-54 (E-4-isobutyrylamino-3′,4′-methylenedioxy-stilbene), WS-69 (E-4-Methylsulfonamino-3′,4′-methylenedioxy-stilbene), WS-70 (E-4-Benzamino-3′,4′-methylenedioxy-stilbene), and WS-74 (E-4-Cyclopropylformamino-3′,4′-methylenedioxy-stilbene).
For orientation: Uptake of a labelled nucleoside into DNA is a usual measure of proliferation.

For `CC(=O)Nc1cccc(/C=C/c2ccc3c(c2)OCO3)c1` [WS-49, E-3-acetylamino-3′,4′-methylenedioxy-stilbene, reference compound], in data set [1], the cell survival rates is on record as at most 20% and the “neuronal cytotoxicity / neurotoxicity (in words)” value is “higher neuronal cytotoxicity”. Turning to `Nc1ccc(/C=C/c2ccc3c(c2)OCO3)cc1` [WS-4, E-4-amino-3′,4′-methylenedioxy-stilbene, reference compound], in data set [1], the cell survival rates result is given as “less than 50%” and the “neuronal cytotoxicity / neurotoxicity (in words)” value is listed as “high neuronal cytotoxicity”. Consider “E-4′-acetamino-3,4-methylenedioxy-diphenylethane [WS-35, reference compound]”, for which the “neurogenesis activity (in words)” value in data set [2] was “no neurogenesis activity”. `CC(=O)Nc1ccc(C#Cc2ccc3c(c2)OCO3)cc1` [WS-77, E-4′-acetamino-3,4-methylenedioxy-diphenylacetylene, reference compound]: in data set [2], the BrdU labeling result was “positive” and the “neurogenesis activity (in words)” value is listed as “weak neurogenesis activity”.

Turning to `O=C(Nc1ccc(/C=C/c2ccc3c(c2)OCO3)cc1)c1ccccc1` [WS-70, E-4-benzoylamino-3′,4′-methylenedioxy-stilbene], the “neuronal cytotoxicity / neurotoxicity (in words)” value in data set [1] is recorded as “low neurotoxicity; also recorded: greatly reduced”. Further, in data set [2], the BrdU labeling result is listed as “positive” and the “activity of proliferation promotion (BrdU positive) at low dose” value (from here on “activity of proliferation promotion”) was “significant activities of proliferation promotion”.

On to `Oc1ccc(/C=C/c2ccc3c(c2)OCO3)cc1` [WS-11, E-4′-hydroxy-3,4-methylenedioxy-stilbene, reference compound], for which, in data set [2], the “neurogenesis activity (in words)” value is on record as “no neurogenesis activity”. In the case of `COc1ccc(/C=C/c2ccc(NC(C)=O)cc2)cc1OC` [WS-43, E-4′-acetylamino-3,4-dimethoxy-stilbene, reference compound], the “neurogenesis activity (in words)” value in data set [2] is listed as “no significant neurogenesis activity”.

As to `O=C(Nc1ccc(/C=C/c2ccc3c(c2)OCO3)cc1)c1cccs1` [WS-73, E-4-(2-thienyl)formamino-3′,4′-methylenedioxy-stilbene], the “neuronal cytotoxicity / neurotoxicity (in words)” value in data set [1] is reported as “low neurotoxicity”. Further, the BrdU labeling result in data set [2] is reported as “positive”.

Regarding `O=C(Nc1ccc(/C=C/c2ccc3c(c2)OCO3)cc1)c1ccccn1` [LSS-20, E-4-(2-pyridinecarboxamino)-3′,4′-methylenedioxy-stilbene], in data set [2], the BrdU labeling result was “positive”. Turning to `CC(C)C(=O)Nc1ccc(/C=C/c2ccc3c(c2)OCO3)cc1` [WS-54, E-4-isobutyrylamino-3′,4′-methylenedioxy-stilbene], in data set [1], the “neuronal cytotoxicity / neurotoxicity (in words)” value is “low neurotoxicity”. Moreover, in data set [2], the BrdU labeling result is “positive” and the “activity of proliferation promotion” value is “significant activities of proliferation promotion”. With `CC(=O)Nc1ccc(/C=C/c2ccc3c(c2)OCO3)cc1F` [WS-71, E-3,4-methylenedioxy-3′-fluoro-4′-acetylamino-stilbene], the “neuronal cytotoxicity / neurotoxicity (in words)” value in data set [1] is “low neurotoxicity”. In data set [2], the BrdU labeling result was “positive”. In the case of `O=C(Cc1ccccc1)Nc1ccc(/C=C/c2ccc3c(c2)OCO3)cc1` [LSS-16, E-4-phenylacetylamino-3′,4′-methylenedioxy-stilbene], the BrdU labeling result in data set [2] is reported as “positive”. Consider `COc1cc(/C=C/c2ccc(OC(C)=O)cc2)cc(OC)c1` [WS-56, E-4-acetoxy-3′,5′-dimethoxy-stilbene, reference compound], for which the “activity of proliferation promotion” value in data set [2] is given as “no significant activity”. With `O=C(Nc1ccc(/C=C/c2ccc3c(c2)OCO3)cc1)C1CC1` [WS-74, E-4-cyclopropylcarboxamino-3′,4′-methylenedioxy-stilbene], the “neuronal cytotoxicity / neurotoxicity (in words)” value in data set [1] is “low neurotoxicity; also recorded: greatly reduced”. In data set [2], the BrdU labeling result is reported as “positive” and the “activity of proliferation promotion” value was “significant activities of proliferation promotion”. On to `CS(=O)(=O)Nc1ccc(/C=C/c2ccc3c(c2)OCO3)cc1` [WS-69, E-4-methanesulfonylamino-3′,4′-methylenedioxy-stilbene], for which, in data set [1], the “neuronal cytotoxicity / neurotoxicity (in words)” value was “low neurotoxicity”. Further, in data set [2], the BrdU labeling result is on record as “positive” and the “activity of proliferation promotion” value is reported as “significant activities of proliferation promotion”. `CC(=O)Nc1ccc(/C=C/C(=O)c2ccc3c(c2)OCO3)cc1` [WS-37, 4-acetylamino-3′,4′-methylenedioxychalcone, reference compound]: in data set [1], the cell survival rates entry is “less than 10%” and the “neuronal cytotoxicity / neurotoxicity (in words)” value is on record as “higher neuronal cytotoxicity”. Take `O=C(Nc1ccc(/C=C/c2ccc3c(c2)OCO3)cc1)C1CCC1` [WS-83, E-4-cyclobutylformamino-3′,4′-methylenedioxy-stilbene]: the BrdU labeling result in data set [2] is recorded as “positive”.

For `CN(C)S(=O)(=O)Nc1ccc(/C=C/c2ccc3c(c2)OCO3)cc1` [LSS-17, E-4-(N,N-dimethylamino-sulfonamino)-3′,4′-methylenedioxy-stilbene], in data set [2], the BrdU labeling result was “positive”. In the case of `CC(=O)Oc1ccc(/C=C/c2ccc3c(c2)OCO3)cc1` [WS-10, E-4′-acetoxy-3,4-methylenedioxy-stilbene, reference compound], the “neurogenesis activity (in words)” value in data set [2] is listed as “no neurogenesis activity”. For `CC(=O)N(C)c1ccc(/C=C/c2ccc3c(c2)OCO3)cc1` [WS-80, E-4′-(N-acetyl-N-methylamino)-3,4-methylenedioxy-stilbene, reference compound], in data set [2], the BrdU labeling result is on record as “negative” and the “neurogenesis activity (in words)” value is recorded as “no significant neurogenesis activity”. For `O=S(=O)(Nc1ccc(/C=C/c2ccc3c(c2)OCO3)cc1)c1ccccc1` [LSS-12, E-4-benzenesulfonylamino-3′,4′-methylenedioxy-stilbene], the BrdU labeling result in data set [2] was “positive”.

Regarding `O=S(=O)(Nc1ccc(/C=C/c2ccc3c(c2)OCO3)cc1)C1CC1` [LSS-13, E-4-cyclopropylsulfonylamino-3′,4′-methylenedioxy-stilbene], the BrdU labeling result in data set [2] was “positive”. As for “E-4′-tertamino-3,4-methylenedioxy-stilbene [WS-60, reference compound]”, the “neurogenesis activity (in words)” value in data set [2] is given as “weak neurogenesis activity”.

In the case of `COc1cc(/C=C/c2ccc(NC(C)=O)cc2)cc(OC)c1` [WS-61, E-4-acetylamino-3′,5′-dimethoxy-stilbene, reference compound], the “neuronal cytotoxicity / neurotoxicity (in words)” value in data set [1] is “reduce neurotoxicity”.
